Reference: patent publication US20060063736A1, “Compositions and methods for inhibiting mucin-type O-linked glycosylation” (priority 2004, published 2006)
“And” between values parts separate entries of the source, which are not always exact repeats. Identical values can stand only once. No end group written: not given here.

Experiments:
[1] = target: T1, mppGalNAcT-1 (Mus musculus, UniProt O08912); assay: ELLA for ppGalNAcTs, mppGalNAcT-1; assay type: biochemical, murine; conditions: mppGalNAcT-1, ELLA validation
T1 construct: plasmids encoding truncated secreted ppGalNAcTs-1 to −5, -7, -10 and -11; made in house; host or cells: COS-7
T1 sequence (O08912 29-559 limits assumed): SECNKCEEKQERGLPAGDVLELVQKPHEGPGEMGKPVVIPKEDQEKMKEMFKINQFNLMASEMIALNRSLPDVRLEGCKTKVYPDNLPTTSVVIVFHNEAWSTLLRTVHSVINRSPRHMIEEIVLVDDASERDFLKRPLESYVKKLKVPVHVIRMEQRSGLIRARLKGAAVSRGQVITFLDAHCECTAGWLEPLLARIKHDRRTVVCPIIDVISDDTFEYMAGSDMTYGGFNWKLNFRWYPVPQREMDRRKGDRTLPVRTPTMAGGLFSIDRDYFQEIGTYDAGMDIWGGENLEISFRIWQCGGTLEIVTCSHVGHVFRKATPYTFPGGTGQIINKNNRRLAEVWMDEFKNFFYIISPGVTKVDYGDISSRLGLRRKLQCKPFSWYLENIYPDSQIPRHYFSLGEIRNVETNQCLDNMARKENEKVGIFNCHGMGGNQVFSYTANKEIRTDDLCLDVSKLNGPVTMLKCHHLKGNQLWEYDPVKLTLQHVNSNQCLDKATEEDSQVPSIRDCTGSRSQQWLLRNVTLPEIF
Protocol: COS-7 cells were transiently transfected with plasmids encoding truncated secreted ppGalNAcTs-1 to −5, -7, -10 and -11 as previously described. Hagen et al. (1997) J. Biol. Chem. 272:13843-13848. The crude conditioned medium was used as the enzyme source.
Standard reaction conditions for ppGalNAcT assays were as follows. The reaction mixture contained the following components in a final volume of 25 μL: 10 mM MnCl2, 40 mM sodium cacodylate, 40 mM β-mercaptoethanol, 0.1% Triton X-100, pH 6.5, 5 μL of conditioned media, and various concentrations of EA2 peptide 4, UDP-GalNAc and inhibitor. All uridine-based compounds were dissolved in dimethyl sulfoxide (DMSO). The concentration of DMSO in the reaction mixture was limited to 2% (v/v), as higher concentrations decreased ppGalNAcT activity. For inhibitor assays, reaction mixtures for positive controls also contained 2% DMSO. Unless otherwise stated, inhibitor assays were performed using 20 μM UDP-GalNAc and 50 μM EA2 peptide 4, the KM values for both substrates. Reactions were incubated at 37° C. and were terminated by the addition of 10 μL of 0.1 M EDTA. All experiments were performed in duplicate. Reaction rates were linear over the period monitored (20-30 min).
96-Well NeutrAvidin-coated plates were prewashed 3 times with 200 μL of wash buffer (25 mM Tris, 150 mM NaCl, 0.1% bovine serum albumin (BSA) (w/v), and 0.05% Tween (v/v), pH 7.2). Reactions were then transferred to the 96-well plates, incubated for 1 hour at room temperature (rt) and subsequently washed 3 times with 200 μL of phosphate-buffered saline (PBS) containing 0.5% BSA and 0.05% Tween, pH 7.1. A 100-μL solution of HPA-HRP in standard PBS buffer (1 μg/mL, pH 7.4) was added and the reaction was incubated for 1 h at rt. After 3 washes with 200 μL of PBS, bound HPA-HRP was quantified by the addition of 100 μL of TMB peroxide solution. The solutions were incubated for 5-15 min in the dark at rt. HRP activity was terminated by the addition of 50 μL of 2 N H2SO4 and the resulting solution was analyzed at 450 nm using a UV/Vis microtiter plate reader. The amount of product generated by the ppGalNAcT was extrapolated from absorbance values using an equation fit to the standard curve derived from Origin 6.1 software.
In order to screen the library in high-throughput format, a non-radioactive enzyme linked lectin assay (ELLA) for ppGalNAcTs was developed. As an acceptor substrate, the EA2 peptide (PTTDSTTPAPTTK; SEQ ID NO:12), a fragment of rat submandibular mucin, was chosen. Albone et al. (1994) J. Biol. Chem. 269:16845-16852. This peptide has been previously shown to be an efficient substrate for murine (m) ppGalNAcT-1 and is preferentially glycosylated at the fourth Thr residue from the N-terminus (underlined). Ten Hagen et al. (2001, supra). Biotinylation of EA2 allowed capture of (glyco)peptides onto 96-well NeutrAvidin-coated plates. The GalNAc-modified glycopeptide product could be detected using the α-GalNAc-specific lectin Helix pomatia agglutinin (HPA) (Hammarstrom et al. (1977) Biochemistry 16:2750-2755) conjugated to horseradish peroxidase (HRP). The bound HRP was quantified by addition of a chromogenic substrate.

[2] = tested on: Jurkat cells; assay: Con A staining of N-linked glycans on Jurkat cells, flow cytometry; assay type: cell-based, human; conditions: 2 d treatment
Protocol: (§1) Jurkat cells were seeded at 250,000 cells/well (determined by Coulter cell counter) in 12-well polystyrene tissue culture plates in 1.0 mL of media and treated with various concentrations of 1-68A or 2-68A from 50 mM dimethyl sulfoxide (DMSO) stock solutions or doxorubicin or campothecin from 1 mM DMSO stock solutions. After 2 d, cells were harvested, washed twice with PBS buffer (PBS, pH 7.4, 0.1% FCS, 0.1% NaN3 w/v) and stained with FITC-HPA (1 μg/mL) or FITC-Con A (5 μg/mL with 1 mM CaCl2) in PBS, pH 7.4 in the dark for 1 h at 4° C. Cells were washed twice with PBS buffer, resuspended in 300 μL of PBS buffer and analyzed by flow cytometry (FacsCaliber, BD Instruments). Annexin-V staining was performed according to the manufacturer's protocols (Invitrogen).
(§2) To directly monitor ppGalNAcT activities in cells, Jurkat cells (human T-cell lymphoma), which are known to produce only the Tn-antigen (FIG. 1) as their O-linked glycans, were chosen. Piller et al. (1990) J. Biol. Chem. 265:9264-9271. Changes in Tn-antigen expression on the surface of Jurkat cells were monitored by HPA binding followed by flow cytometry analysis. Con A staining of N-linked glycans was used as a control for non-specific inhibition of protein glycosylation. Baenziger and Fiete (1979) J. Biol. Chem. 254:2400-2407.

[3] = tested on: Jurkat cells; assay: HPA staining of Jurkat cells (Tn-antigen), flow cytometry; assay type: cell-based, human; conditions: Jurkat cells, 2 d treatment
Protocol: as §1, §2

[4] = tested on: Jurkat cells; assay: Annexin-V staining of Jurkat cells (apoptosis); assay type: cell-based, human; conditions: 2 d treatment
Protocol: as §1, §2

[5] = target: C-terminal biotinylated EA2* glycopeptide 5 (…; SEQ ID NO:17) (rat); assay: enzyme-linked lectin assay (ELLA): 15% glycopeptide 5 (9 pmol) on NeutrAvidin plates, detected with HPA-HRP
[6] = target: T2, C-terminal biotinylated EA2 peptide 4 (PTTKDSTTPAPTTKK; SEQ ID NO:16)
T2 chain: PTTKDSTTPAPTTKK

O=c1ccn([C@@H]2O[C@H](COP(=O)(O)OP(=O)(O)O)[C@@H](O)[C@H]2O)c(=O)[nH]1 [UDP, reference compound]
Ki ([1]; read-out: KI value for the product UDP): 251 µM and 250 µM

CC[C@@]1(O)C(=O)OCc2c1cc1n(c2=O)Cc2cc3ccccc3nc2-1 [campothecin, reference compound]
effect on Con A staining [2]: reduced | effect on HPA staining [3]: reduced | Annexin-V staining (induction of apoptosis) [4]: induced Annexin V binding at levels comparable to 1-68A

COc1cccc2c1C(=O)c1c(O)c3c(c(O)c1C2=O)C[C@@](O)(C(=O)CO)C[C@@H]3O[C@H]1C[C@H](N)[C@H](O)[C@H](C)O1 [doxorubicin, reference compound]
effect on Con A staining [2]: reduced | effect on HPA staining [3]: reduced | Annexin-V staining (induction of apoptosis) [4]: induced Annexin V binding at levels comparable to 1-68A

EA2 peptide 4: C-terminal biotinylated EA2 peptide (PTTKDSTTPAPTTKK; SEQ ID NO:16), fragment of rat submandibular mucin, acceptor substrate (PTTKDSTTPAPTTKK-biotin) [reference compound]
Km [1]: 48 ± 4 µM

Helix pomatia agglutinin (HPA) conjugated to horse radish peroxidase (HPA-HRP)
signal to noise ratio (fold above background) [5]: 30

uridine diphosphate N-acetyl-α-galactosamine [UDP-GalNAc, reference compound]
Km [1]: 13.9 µM and 14 µM

B1: murine polypeptide N-acetyl-α-galactosaminyltransferase-1 (mppGalNAcT-1) (protein)
chain: GLPAGDVLELVQKPHEGPGEMGKPVVIPKEDQEKMKEMFKINQFNLMASEMIALNRSLPDVRLEGCKTKVYPDNLPTTSVVIVFHNEAWSTLLRTVHSVINRSPRHMIEEIVLVDDASERDFLKRPLESYVKKLKVPVHVIRMEQRSGLIRARLKGAAVSRGQVITFLDAHCECTAGWLEPLLARIKHDRRTVVCPIIDVISDDTFEYMAGSDMTYGGFNWKLNFRWYPVPQREMDRRKGDRTLPVRTPTMAGGLFSIDRDYFQEIGTYDAGMDIWGGENLEISFRIWQCGGTLEIVTCSHVGHVFRKATPYTFPGGTGQIINKNNRRLAEVWMDEFKNFFYIISPGVTKVDYGDISSRLGLRRKLQCKPFSWYLENIYPDSQIPRHYFSLGEIRNVETNQCLDNMARKENEKVGIFNCHGMGGNQVFSYTANKEIRTDDLCLDVSKLNGPVTMLKCHHLKGNQLWEYDPVKLTLQHVNSNQCLDKATEEDSQVPSIRDCTGSRSQQWLLRNVTLPEIF
KM (ELLA enzyme kinetics) [6]: 48.0 ± 4.0 µM
